Experimental data published in patent US20230365542A1, “Selective Agonists of 5-HT2A Receptor and Methods of Use” (Yale University, priority 2020, published 2023).
Where two headings read alike, the source gives them in different places.

Assays:
5-HT2CR [1] = target: T1, 5-HT2CR (Homo sapiens, UniProt P28335); assay: Calcium flux assay (FLIPR, Fluo-4), 5-HT2CR stable cell line; format: cell-based; details: for EC50: read-out: 5-HT2CR EC50; for 5-HT2CR Rmax ± S.E.M: value in parentheses
T1 sequence (P28335 33-458): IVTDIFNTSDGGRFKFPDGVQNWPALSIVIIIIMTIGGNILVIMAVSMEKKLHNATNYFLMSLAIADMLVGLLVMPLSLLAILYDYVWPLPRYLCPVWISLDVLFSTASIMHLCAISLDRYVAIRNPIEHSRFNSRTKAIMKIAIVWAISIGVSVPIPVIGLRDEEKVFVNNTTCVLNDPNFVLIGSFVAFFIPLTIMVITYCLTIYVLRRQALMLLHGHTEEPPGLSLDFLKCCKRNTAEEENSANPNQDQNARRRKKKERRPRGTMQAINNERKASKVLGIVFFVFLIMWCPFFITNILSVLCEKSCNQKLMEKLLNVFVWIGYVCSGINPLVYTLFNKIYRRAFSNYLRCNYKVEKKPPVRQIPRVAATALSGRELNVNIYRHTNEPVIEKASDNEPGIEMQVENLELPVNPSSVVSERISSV
Experimental: (§1) Stable cell lines for 5-HT2AR, 5-HT2BR and 5-HT2CR generated using the Flp-In 293 T-Rex Tetracycline inducible system (Invitrogen). Tetracycline-induced cells were seeded in 384-well poly-L-lysine plates at a density of 10,000 cells/well in DMEM containing 1% dialyzed FBS at least 16-24 hr before the calcium flux assay. On the day of the assay, the cells were incubated (20 ul/well) for 1 hr at 37° C. with Fluo-4 Direct dye (Invitrogen) reconstituted in FLIPR buffer (1×HBSS, 2.5 mM probenecid, and 20 mM HEPES, pH 7.4). After dye loading, cells were placed in a FLIPR^TETRA fluorescence imaging plate reader (Molecular Dynamics). Drug dilutions were prepared at 3× final concentration in drug buffer (1×HBSS, 20 mM HEPES, 0.1% BSA, 0.01% ascorbic acid, pH 7.4) and aliquoted into 384-well plates and placed in the FLIPR^TETRA for drug stimulation. The fluidics module and plate reader of the FLIPR^TETRA were programmed to read baseline fluorescence for 10s (1 read/s), then 10 ul of drug/well was added and read for 5 min (1 read/s). Fluorescence in each well was normalized to the average of the first 10 reads (i.e., baseline fluorescence). Then, the maximum-fold increase, which occurred within the first 60 s after drug addition, was determined and fold over baseline was plotted as a function of drug concentration. Data were normalized to % 5-HT stimulation and analyzed using “log(agonist) vs. response” in GraphPad Prism 9.0.

5-HT2CR [2] = target: T1, 5-HT2CR; assay: 5-HT2CR binding affinity (Ki), Table 8
5-HT2AR [3] = target: T2, 5-HT2AR (Homo sapiens, UniProt P28223); assay: Calcium flux assay (FLIPR, Fluo-4), 5-HT2AR stable cell line; format: cell-based; details: for 5-HT2AR Rmax ± S.E.M: value in parentheses
T2 construct: expressed in transfected cells; host or cells: Flp-In 293 T-Rex (tetracycline inducible)
Experimental: as §1

5-HT2AR [4] = target: T2, 5-HT2AR; assay: 5-HT2AR binding affinity (Ki), Table 8
5-HT2BR [5] = target: T3, 5-HT2BR (Homo sapiens, UniProt P41595); assay: Calcium flux assay (FLIPR, Fluo-4), 5-HT2BR stable cell line; format: cell-based; details: for 5-HT2BR Rmax ± S.E.M: value in parentheses
T3 construct: expressed in transfected cells; host or cells: Flp-In 293 T-Rex (tetracycline inducible)
Experimental: Stable cell lines for 5-HT2AR, 5-HT2BR and 5-HT2CR generated using the Flp-In 293 T-Rex Tetracycline inducible system (Invitrogen). Tetracycline-induced cells were seeded in 384-well poly-L-lysine plates at a density of 10,000 cells/well in DMEM containing 1% dialyzed FBS at least 16-24 hr before the calcium flux assay. On the day of the assay, the cells were incubated (20 ul/well) for 1 hr at 37° C. with Fluo-4 Direct dye (Invitrogen) reconstituted in FLIPR buffer (1×HBSS, 2.5 mM probenecid, and 20 mM HEPES, pH 7.4). After dye loading, cells were placed in a FLIPR^TETRA fluorescence imaging plate reader ([…]). Drug dilutions were prepared at 3× final concentration in drug buffer (1×HBSS, 20 mM HEPES, 0.1% BSA, 0.01% ascorbic acid, pH 7.4) and aliquoted into 384-well plates and placed in the FLIPR^TETRA for drug stimulation. The fluidics module and plate reader of the FLIPR^TETRA were programmed to read baseline fluorescence for 10s (1 read/s), then 10 ul of drug/well was added and read for 5 min (1 read/s). Fluorescence in each well was normalized to the average of the first 10 reads (i.e., baseline fluorescence). Then, the maximum-fold increase, which occurred within the first 60 s after drug addition, was determined and fold over baseline was plotted as a function of drug concentration. Data were normalized to % 5-HT stimulation and analyzed using “log(agonist) vs. response” in GraphPad Prism 9.0.

5-HT2BR [6] = target: T3, 5-HT2BR; assay: 5-HT2BR binding affinity (Ki), Table 8
[7] = bracketed value below EC50, read-out: 5-HT2AR pEC50 ± S.E.M (converted)
[8] = bracketed value below EC50, read-out: 5-HT2BR pEC50 ± S.E.M (converted)
[9] = bracketed value below Ki, read-out: 5-HT2BR pKi ± S.E.M (converted)
[10] = bracketed value below Ki, read-out: 5-HT2CR pKi ± S.E.M (converted)

T3 sequence (P41595 whole entry): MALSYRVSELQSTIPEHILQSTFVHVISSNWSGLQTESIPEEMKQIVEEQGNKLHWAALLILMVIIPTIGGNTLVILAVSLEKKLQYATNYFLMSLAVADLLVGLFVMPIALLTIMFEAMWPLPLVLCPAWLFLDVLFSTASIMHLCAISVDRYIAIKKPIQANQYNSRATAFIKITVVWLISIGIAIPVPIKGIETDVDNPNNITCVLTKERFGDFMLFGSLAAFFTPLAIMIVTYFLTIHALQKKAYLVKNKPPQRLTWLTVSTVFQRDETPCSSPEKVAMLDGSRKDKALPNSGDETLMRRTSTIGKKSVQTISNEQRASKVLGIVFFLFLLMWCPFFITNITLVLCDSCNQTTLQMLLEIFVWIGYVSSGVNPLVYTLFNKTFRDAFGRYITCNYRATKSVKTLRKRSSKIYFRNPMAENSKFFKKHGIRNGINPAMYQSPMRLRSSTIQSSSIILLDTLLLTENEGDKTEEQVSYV
T2 sequence (P28223 whole entry): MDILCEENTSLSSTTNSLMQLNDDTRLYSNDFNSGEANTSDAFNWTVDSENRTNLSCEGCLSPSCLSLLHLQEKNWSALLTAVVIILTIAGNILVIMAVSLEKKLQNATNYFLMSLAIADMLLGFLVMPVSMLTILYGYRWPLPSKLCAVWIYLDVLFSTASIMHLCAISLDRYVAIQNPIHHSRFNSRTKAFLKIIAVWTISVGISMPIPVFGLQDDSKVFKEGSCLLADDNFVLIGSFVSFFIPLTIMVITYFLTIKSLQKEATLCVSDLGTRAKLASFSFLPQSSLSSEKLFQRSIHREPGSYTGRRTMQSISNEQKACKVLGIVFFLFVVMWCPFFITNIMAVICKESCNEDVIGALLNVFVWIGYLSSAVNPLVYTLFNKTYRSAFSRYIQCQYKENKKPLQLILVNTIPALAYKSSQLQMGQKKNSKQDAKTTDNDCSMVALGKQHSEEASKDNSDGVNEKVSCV

Structure (SMILES) | EC50 (5-HT2CR [1]) [µM] | Ki (5-HT2CR [2]; read-out: 5-HT2CR Ki) [µM] | EC50 (5-HT2AR [3]; read-out: 5-HT2AR EC50) [µM] | 5-HT2AR Rmax ± S.E.M (5-HT2AR [3]) | Ki (5-HT2AR [4]; read-out: 5-HT2AR Ki) [µM] | EC50 (5-HT2BR [5]; read-out: 5-HT2BR EC50) [µM] | 5-HT2BR Rmax ± S.E.M (5-HT2BR [5]) | Ki (5-HT2BR [6]; read-out: 5-HT2BR Ki) [µM] | 5-HT2CR EC50 (5-HT2CR [1]) | 5-HT2BR EC50 (5-HT2BR [5]) | EC50 (5-HT2AR [3]; [7]) [µM] | EC50 (5-HT2BR [5]; [8]) [µM] | Ki (5-HT2BR [6]; [9]) [µM] | 5-HT2CR Rmax ± S.E.M (5-HT2CR [1]) | Ki (5-HT2CR [2]; [10]) [µM] | 5-HT2AR EC50 (5-HT2AR [3]) | Ki (5-HT2AR [4]; bracketed value below Ki, read-out: 5-HT2AR pKi ± S.E.M (converted)) [µM]
c1cnc2[nH]cc(C3CCCNC3)c2c1 (single isomer, unassigned) [compound 50, 3-(piperidin-3-yl)-1H-pyrrolo[2,3-b]pyridine] | > 10 | 2.73 | 1.17 | (65.1% | 5.25 | 0.68 | (47.0% | 0.62 | – | – | – | – | – | – | – | – | –
c1cnc2[nH]cc(C3CCCNC3)c2c1 (single isomer, unassigned) [compound 51, 3-(piperidin-3-yl)-1H-pyrrolo[2,3-b]pyridine] | – | 0.48 | 4.21 | (18.2% | 2.73 | – | – | 0.5 | antagonist | antagonist | – | – | – | – | – | – | –
CCCCCN1CC(c2cncc(Cl)c2)=C[C@H](C)C1 [Compound 10, 5′-chloro-5-methyl-1-pentyl-1,2,5,6-tetrahydro-3,3′-bipyridine] | > 10 | 1.66 | – | (68.6% | 7.01 | – | (88.9% | – | – | – | 0.331 | 0.0245 | 0.00501 | – | – | – | –
CCCN1CC(c2cncc(Cl)c2)=C[C@H](C)C1 [Compound 16, 5′-Chloro-5-methyl-1-propyl-1,2,5,6-tetrahydro-3,3′-bipyridine] | 6.76 | 6.52 | 1.06 | (48.7% | 7.32 | – | (74.9% | – | – | – | 1.05 | 0.02 | 0.0132 | (34.4% | 6.31 | – | –
CCCCN1CC(c2c[nH]c3ncccc23)=C[C@H](C)C1 [Compound 22, 3-(1-butyl-5-methyl-1,2,5,6-tetrahydropyridin-3-yl)-1H-pyrrolo[2,3-b]pyridine] | – | 7.03 | 2.26 | (23.8% | 5.27 | – | – | 1.97 | antagonist | antagonist | – | – | – | – | 7.41 | – | –
CCCN1CC(c2c[nH]c3ncccc23)=C[C@H](C)C1 [Compound 24, 3-(5-methyl-1-propyl-1,2,5,6-tetrahydropyridin-3-yl)-1H-pyrrolo[2,3-b]pyridine] | – | > 10 | 0.86 | (14.8% | > 10 | – | – | 1.67 | – | antagonist | 0.871 | – | – | – | – | – | –
C[C@@H]1C=C(c2c[nH]c3ncccc23)CN(CC2(C)COC2)C1 [compound 25, (R)-3-(5-methyl-1-((3-methyloxetan-3-yl)methyl)-1,2,5,6-tetrahydropyridin-3-yl)-1H-pyrrolo[2,3-b]pyridine] | – | > 10 | 4 | (29.5% | > 10 | 6.38 | (44.6% | 3.29 | – | – | – | – | – | – | – | – | –
C[C@H]1C=C(c2c[nH]c3ncccc23)CN(CC2(C)COC2)C1 [compound 26, (S)-3-(5-methyl-1-((3-methyloxetan-3-yl)methyl)-1,2,5,6-tetrahydropyridin-3-yl)-1H-pyrrolo[2,3-b]pyridine] | – | > 10 | > 10 | – | > 10 | 9.23 | (71.0% | 5.83 | – | – | – | 9.12 | 5.75 | – | – | – | –
C[C@@H]1C=C(c2c[nH]c3ncccc23)CN(C2COC2)C1 [compound 27, (R)-3-(5-methyl-1-(oxetan-3-yl)-1,2,5,6-tetrahydropyridin-3-yl)-1H-pyrrolo[2,3-b]pyridine] | – | > 10 | > 10 | – | > 10 | – | – | > 10 | – | antagonist | – | – | – | – | – | – | –
C[C@H]1C=C(c2c[nH]c3ncccc23)CN(C2COC2)C1 [compound 28, (S)-3-(5-methyl-1-(oxetan-3-yl)-1,2,5,6-tetrahydropyridin-3-yl)-1H-pyrrolo[2,3-b]pyridine] | – | > 10 | > 10 | – | > 10 | 5.24 | (48.1% | 9.89 | – | – | – | – | 9.77 | – | – | – | –
C[C@@H]1C=C(c2c[nH]c3ncccc23)CN(C2CC2)C1 [compound 29, (R)-3-(1-cyclopropyl-5-methyl-1,2,5,6-tetrahydropyridin-3-yl)-1H-pyrrolo[2,3-b]pyridine] | – | > 10 | 1.36 | (63.0% | 6.14 | 5.15 | (74.7% | 1.66 | – | – | – | – | – | – | – | – | –
C[C@H]1C=C(c2c[nH]c3ncccc23)CN(C2CC2)C1 [compound 30, (S)-3-(1-cyclopropyl-5-methyl-1,2,5,6-tetrahydropyridin-3-yl)-1H-pyrrolo[2,3-b]pyridine] | – | > 10 | 3.54 | (29.1% | > 10 | 4.36 | (58.3% | 2.54 | – | – | – | – | – | – | – | – | –
C[C@@H]1C=C(c2c[nH]c3ncccc23)CN(CCCN(C)C)C1 [compound 31, (R)-N,N-dimethyl-3-(3-methyl-5-(1H-pyrrolo[2,3-b]pyridin-3-yl)-3,6-dihydropyrridin-1(2H)-yl)propan-1-amine] | – | > 10 | – | – | > 10 | – | – | > 10 | – | antagonist | – | – | – | – | – | antagonist | –
C[C@H]1C=C(c2c[nH]c3ncccc23)CN(CCCN(C)C)C1 [compound 32, (S)-N,N-dimethyl-3-(3-methyl-5-(1H-pyrrolo[2,3-b]pyridin-3-yl)-3,6-dihydropyridin-1(2H)-yl)propan-1-amine] | – | > 10 | – | – | > 10 | – | – | 9.72 | – | antagonist | – | – | – | – | – | antagonist | –
C[C@@H]1C=C(c2c[nH]c3ncccc23)CNC1 [compound 38, (R)-3-(5-methyl-1,2,5,6-tetrahydropyridin-3-yl)-1H-pyrrolo[2,3-b]pyridine] | – | – | – | (90.1% | 0.68 | – | (82.9% | – | – | – | – | – | 0.295 | (75.0% | – | – | –
C[C@@H]1C=C(c2c[nH]c3ncccc23)CN(CCCc2cnn(C)c2)C1 [compound 43, (R)-3-(5-methyl-1-(3-(1-methyl-1H-pyrazol-4-yl)propyl)-1,2,5,6-tetrahydropyridin-3-yl)-1H-pyrrolo[2,3-b]pyridine] | – | > 10 | – | – | 0.67 | 0.79 | (39.5% | 0.7 | – | – | – | – | 0.692 | – | – | antagonist | 0.661
C[C@H]1C=C(c2c[nH]c3ncccc23)CN(CCCc2cnn(C)c2)C1 [compound 44, (S)-3-(5-methyl-1-(3-(1-methyl-1H-pyrazol-4-yl)propyl)-1,2,5,6-tetrahydropyridin-3-yl)-1H-pyrrolo[2,3-b]pyridine] | – | > 10 | – | (40.2% | 2.37 | 0.36 | (56.2% | 0.96 | – | – | 0.269 | 0.355 | – | – | – | – | –
C[C@H]1C=C(c2c[nH]c3ncccc23)CN(Cc2cnco2)C1 [compound 48, (S)-5-((3-methyl-5-(1H-pyrrolo[2,3-b]pyridin-3-yl)-3,6-dihydropyridin-1(2H)-yl)methyl)oxazole] | – | > 10 | – | – | > 10 | 8.86 | (48.8% | 8.01 | – | – | – | – | – | – | – | antagonist | –
